The source of these data is patent US20070173532A1, “New Piperidine Antibiotics” (Actelion Pharmaceuticals Ltd., priority 2004, published 2007).

Holding throughout (assay type): cell-based
The subject of one test is S. aureus A798. The experiment in a line: MIC by microdilution (NCCLS) against S. aureus A798. The conditions noted are these: pH 7.2-7.3; for MIC: Staphylococcus aureus, A798, cation-adjusted Mueller-Hinton Broth. The method, then:
(§1) These assays have been performed following the description given in “Methods for dilution Antimicrobial Susceptibility Tests for Bacteria that Grow Aerobically, 4th ed.; Approved standard: NCCLS Document M7-A4; National Committee for Clinical Laboratory Standards: Villanova, Pa., USA, 1997”. Minimal inhibitory concentrations (MICs; mg/l) were determined in cation-adjusted Mueller-Hinton Broth (BBL) by a microdilution method following NCCLS guidelines (National Committee for Clinical Laboratory Standards. Methods for Dilution Antimicrobial Susceptibility). The pH of the test medium was 7.2-7.3. All Examples were tested against several Gram positive and Gram negative bacteria.

In another test the test system is E. faecium A949. Briefly: MIC by microdilution (NCCLS) against E. faecium A949. The conditions noted are these: pH 7.2-7.3; for MIC: Enterococcus faecium, A949, cation-adjusted Mueller-Hinton Broth. As to the method:
as §1

In a further test the test system is S. aureus 29213. The experiment in a line: MIC by microdilution (NCCLS) against S. aureus 29213. The conditions noted are these: pH 7.2-7.3; for MIC: Staphylococcus aureus, 29213, cation-adjusted Mueller-Hinton Broth. The method, then:
as §1
A general note: Broth dilution looks for growth in wells or tubes with falling amounts of substance.

A further test deals with S. pneumoniae 49619. Briefly: MIC by microdilution (NCCLS) against S. pneumoniae 49619. The conditions noted are these: for MIC: Streptococcus pneumoniae, 49619, cation-adjusted Mueller-Hinton Broth, pH 7.2-7.3, read-out: MIC S. Pneunoniae 49619. As to the method: as §1
The subject of another test is E. faecalis 29212. Briefly: MIC by microdilution (NCCLS) against E. faecalis 29212. The conditions noted are these: pH 7.2-7.3; for MIC: Enterococcus faecalis, 29212, cation-adjusted Mueller-Hinton Broth. The method, then:
as §1

In a further test the test system is S. Pneunoniae A70. Briefly: MIC by microdilution (NCCLS) against S. Pneunoniae A70. The conditions noted are these: cation-adjusted Mueller-Hinton Broth, pH 7.2-7.3. As to the method: as §1
Setting [1] is: cation-adjusted Mueller-Hinton Broth.

The structures appear in SMILES notation. Converted amounts (≈) assume the structure as drawn.

`COc1cnc2cccc(OCC[C@@H]3CCN(CCSc4cccs4)C[C@@H]3CCC(=O)O)c2c1` [Example 1, 3-{(3R,4S)-4-[2-(3-methoxy-quinolin-5-yloxy)-ethyl]-1-[2-(thiophen-2-ylsulfanyl)-ethyl]-piperidin-3-yl}-propionic acid]: the MIC with S. aureus A798 is 0.25 µg/mL (≈ 0.499 µM); against E. faecium A949, 1 µg/mL (≈ 2 µM); in the test on S. aureus 29213, 0.5 µg/mL (≈ 0.999 µM); in the test with S. pneumoniae 49619, 0.5 µg/mL (≈ 0.999 µM); against E. faecalis 29212, 8 µg/mL (≈ 16 µM); in the test with S. Pneunoniae A70, 1 µg/mL (≈ 2 µM).
With `COc1cnc2cccc(C(O)CC[C@@H]3CCN(C/C=C/c4ccccc4)C[C@@H]3C(=O)O)c2c1` (mixture of isomers) [Example 10, (3R,4R)-4-[(3RS)-3-hydroxy-3-(3-methoxy-quinolin-5-yl)-propyl]-1-trans-(3-phenyl-allyl)-piperidine-3-carboxylic acid], in the test with S. aureus A798 (setting [1]), the “MIC S. aureus A798” value turned out to be 0.25 µg/mL (≈ 0.543 µM). The “MIC E. faecium A949” value in the test on E. faecium A949 (setting [1]) stood at 4 µg/mL (≈ 8.68 µM). For the same compound, the “MIC S. aureus 29213” value in the test on S. aureus 29213 (setting [1]) stood at 0.5 µg/mL (≈ 1.09 µM). The “MIC S. Pneunoniae 49619” value in the test with S. pneumoniae 49619 (cation-adjusted Mueller-Hinton Broth, pH 7.2-7.3) came out at 1 µg/mL (≈ 2.17 µM). In the test on E. faecalis 29212 (setting [1]), the “MIC E. faecalis 29212” value was found to be 4 µg/mL (≈ 8.68 µM). In addition, the “MIC S. Pneunoniae A70” value against S. Pneunoniae A70 turned out to be 4 µg/mL (≈ 8.68 µM).
For `COc1cnc2cccc(OCC[C@@H]3CCN(CCSc4cccs4)C[C@@H]3CCCO)c2c1` [Example 2, 3-{(3R,4S)4-[2-(3-methoxy-quinolin-5-yloxy)-ethyl]-1-[2-(thiophen-2-ylsulfanyl)-ethyl]-piperidin-3-yl}-propan-1-ol], the MIC was found to be 0.25 µg/mL (≈ 0.514 µM) with S. aureus A798; 2 µg/mL (≈ 4.11 µM) with E. faecium A949; 1 µg/mL (≈ 2.05 µM) in the test on S. aureus 29213; 0.5 µg/mL (≈ 1.03 µM) in the test on S. pneumoniae 49619; 2 µg/mL (≈ 4.11 µM) with E. faecalis 29212; 1 µg/mL (≈ 2.05 µM) in the test on S. Pneunoniae A70.

By MIC is commonly meant the lowest concentration that inhibits growth of the organism.
